Here are results for five compounds from publication PMC8623398, “Investigation of the Mechanisms of Cytotoxic Activity of 1,3-Disubstituted Thiourea Derivatives” (Pharmaceuticals, 2021).

Molecules are shown by their SMILES.

One series deals with IL-6 level, SW620 cells. The series can be described thus: IL-6 level ELISA, SW620. The class given is cell-based, human. Conditions: SW620, 72 h; for IL-6 Concentration: compound at IC50 concentration, ELISA; for reduction (inhibition) of IL-6 level: IC50 concentration, vs control. The procedure:
(§1) Because of the low secretion of IL-6 by leukemic cells compared to solid tumors, and in addition to the lack of IL-6 receptors in K-562 cells, studies of the effect of derivatives 1–3, 8, and 9 on the inhibition of IL-6 release were carried out on primary and secondary solid tumor cells (SW480, SW620, and PC3). A remarkable inhibition of the IL-6 level was denoted for both colon cancer cell lines. Compound 2, identified as the strongest inhibitor, reduced the interleukin level by 54% (in SW480 cells) and 63% (SW620 cells). A significant effect was also observed in these cells for its structural isomer 3 (39% and 23% of inhibition, respectively). Additionally, compound 3 considerably affected the IL-6 level produced by PC3 cells, and reduced it by 33%. Similarly, the treatment with derivative 1 was effective for both colon cancer cells. In its presence, IL-6 release decreased by 28–36%, as compared to controls. For monosubstituted derivatives 8 and 9, the observed IL-6-reducing influence was weaker. They both inhibited IL-6 secretion in SW480 and SW620 cell lines by 25–32%. In contrast to compound 9, thiourea 8 additionally diminished the cytokine level in PC3 cells by 26%.
(§2) The IL-6 concentration in all studied cancer cells and normal HaCaT cell lines was measured by an ELISA kit (Diaclon SAS Besancon CEDEX, Besançon, France). […] IL-6 in cell culture supernatant was measured using the enzyme-linked immunosorbent assay in accordance with the manufacturer’s protocol.
On the technique in general: ELISA stands for enzyme-linked immunosorbent assay.

For the next series, the system named is SW480 cells. The series can be described thus: MTT assay, SW480. In kind it is cell-based, human. As to conditions: 50% growth inhibition. The procedure: (§3) As a first step in assessing their cytotoxic properties, all thioureas of the series were assayed against four human carcinoma cell lines, such as SW480 (primary colon cancer), SW620 (metastatic colon cancer), PC3 (metastatic prostate cancer), and K-562 (chronic myelogenous leukemia), as well as against the normal cell line HaCaT (immortalized human keratinocytes). Table 1 lists the compound concentrations that produced 50% of growth inhibition (IC50, μM), generated by the MTT method, in comparison with two commonly used chemotherapeutic agents, doxorubicin and cisplatin.
The human primary (SW480), metastatic (SW620) colon cancer, metastatic prostate cancer (PC3), chronic myelogenous leukemia (K-562), and human immortal keratinocyte (HaCaT) cell lines were purchased from the American Type Culture Collection (ATCC, Rockville, MD, USA). The cells were cultured in medium according to protocols (MEM for SW480 and SW620, RPMI 1640 for PC3 and K-562, and DMEM for HaCaT cells), supplemented with 10% FBS, penicillin (100 U/mL) and streptomycin (100 μg/mL), and cultured in a 37 °C/5% CO2 humidified incubator. The cells were cultured until appropriate confluence was achieved (80–90%). Next, they were harvested by treatment with 0.25% trypsin (Gibco Life Technologies, Waltham, MA, USA) excluding the non-adherent K-562 cell line and used for studies.
(§4) Cells without the studied compounds in medium were used as a control.
(§5) The cell viability was assessed by determination of MTT salt [3-(4,5-dimethylthiazol-2-yl)-2,5-diphenyltetrazoliumbromide] conversion by mitochondrial dehydrogenase. The MTT assay was performed as previously described. Alternatively, non-adherent leukemic cells were centrifuged in a microplate centrifuge (400× g, 5 min) during the collection stages. Experiments were repeated three times. Cell viability was presented as a percent of MTT reduction in the treated cells versus the control cells. The number of viable cells cultured without the studied compounds was assumed as 100%. A decreased relative MTT level indicated decreased cell viability. Thiourea compounds with the highest cytotoxic potential assessed by MTT determination (with the lowest IC50) were chosen for subsequent assessments of cytotoxicity mechanisms.
(Tetrazolium dyes change colour on reduction, which living cells bring about.)

Series [1] relates to SW480, SW620, PC3, K-562 cells. The series can be described thus: MTT assay, summary over cancer cell lines. In kind it is cell-based. As to conditions: Homo sapiens, 72 h, depending on the tumor line, read-out: IC50 (range or bound over cancer cell lines). The procedure: as §3, §4, §5
The next series has as its system IL-6 level, SW480 cells. The series can be described thus: IL-6 level ELISA, SW480. The class given is cell-based, human. Conditions: SW480, 72 h; for IL-6 Concentration: compound at IC50 concentration, ELISA; for reduction (inhibition) of IL-6 level: IC50 concentration, vs control. The procedure: as §1, §2
A further series deals with HaCaT cells. The series can be described thus: Annexin V-FITC/PI flow cytometry, HaCaT. In kind it is cell-based, human. Conditions: 72 h, IC50 concentration, Annexin V-FITC/PI. The procedure: (§6) To estimate the mechanism of anticancer activity of the selected compounds 1–3, 8, and 9, their effect on both early and late apoptosis was evaluated by flow cytometry analysis. […] Additionally, visible late apoptosis-inducing properties in these cell lines were denoted for the compound 9 (47% ± 3.0%), which was twice as strong towards the colon tumor cells mentioned above. The apoptotic properties of analogs 3 and 8 in K-562 cells varied from 30% ± 1.6% to 33% ± 2.3%. […] Whereas the apoptosis-generating influence of derivatives 2 and 3 on normal keratinocytes was higher (29% and 23%), their selectivity measured by MTT methods is favorable. The obtained results are in agreement with the IC50 values assigned to pathological cancer cell lines. The cells were cultured and harvested under the conditions described in Section 3.2.1. […] The effect of these compounds on the process of early and late apoptosis and necrosis was determined as described previously by dual staining with Annexin V:FITC and propidium iodide, according to the manufacturer’s protocol (Becton Dickinson). The cells that were Annexin V:FITC positive and PI negative were identified as early apoptotic, and Annexin V:FITC and PI positive as late apoptotic or necrotic.
(A flow cytometer gives signals particle by particle.)

A further series deals with PC3 cells. The series can be described thus: Annexin V-FITC/PI flow cytometry, PC3. Conditions: PC3, 72 h, IC50 concentration. In kind it is cell-based, human. The procedure: as §6

With `Fc1ccc(NC(=S)Nc2cccc(C(F)(F)F)c2)cc1Cl` [Compound 1, 1-(3-chloro-4-fluorophenyl)-3-[3-(trifluoromethyl)phenyl]thiourea], the “IL-6 Concentration” value with IL-6 level, SW620 cells was 4.9 ± 0.01 pg/mL; in the series with IL-6 level, SW480 cells it was 5.7 ± 0.01 pg/mL. Moreover, the IC50 in the series on SW480 cells (72 h) is 12.7 ± 1.53 µM; in the series with SW480 cells (Homo sapiens, SW480, 72 h) it was 12.7 to 15.6 µM; in series [1] it was at most 10 µM.

In the case of `FC(F)(F)c1cccc(NC(=S)Nc2ccc(Cl)c(Cl)c2)c1` [Compound 2, 1-(3,4-dichlorophenyl)-3-[3-(trifluoromethyl)phenyl]thiourea], in the series on IL-6 level, SW620 cells, the “reduction (inhibition) of IL-6 level” value came to 63% and the “IL-6 Concentration” value is 2.8 ± 0.03 pg/mL. In the series on SW480 cells (Homo sapiens, SW480, 72 h), this compound gave an IC50 of 9 ± 1.42 µM. In addition, in the series with IL-6 level, SW480 cells, the “reduction (inhibition) of IL-6 level” value is 54% and the “IL-6 Concentration” value amounted to 3.6 ± 0.02 pg/mL. Moreover, in the series on HaCaT cells, the “cells in late apoptosis” value turned out to be 29%.

With `FC(F)(F)c1cccc(NC(S)=Nc2ccc(Cl)cc2Cl)c1` [Compound 3, 1-(2,4-dichlorophenyl)-3-[3-(trifluoromethyl)phenyl]thiourea], the “reduction (inhibition) of IL-6 level” value in the series with IL-6 level, SW620 cells was 23%; in the series with IL-6 level, SW480 cells, 39%. Besides, the “IL-6 Concentration” value with IL-6 level, SW620 cells is on record as 5.9 ± 0.03 pg/mL; in the series with IL-6 level, SW480 cells, 4.8 ± 0.04 pg/mL. Also, the IC50 is 30.1 ± 3.11 µM in the series with SW480 cells (Homo sapiens, SW480, 72 h) and at most 10 µM in series [1]. The “cells in late apoptosis” value with HaCaT cells is on record as 23%.

In turn, `FC(F)(F)c1ccc(NC(=S)Nc2cccc(C(F)(F)F)c2)cc1` [Compound 8, 1-[3-(trifluoromethyl)phenyl]-3-[4-(trifluoromethyl)phenyl]thiourea] yielded a melting point of 134 to 136 °C. Further, the “IL-6 Concentration” value in the series with IL-6 level, SW620 cells was 5.8 ± 0.06 pg/mL. In the series with SW480 cells (Homo sapiens, SW480, 72 h), the midpoint of inhibition, the IC50, lay at 8.9 ± 1.14 µM. Further, in the series on PC3 cells, the “cells in late apoptosis” value was 25% ± 1.5%. Besides, the “IL-6 Concentration” value in the series with IL-6 level, SW480 cells worked out at 5.3 ± 0.01 pg/mL.

As to `FC(F)(F)c1cccc(NC(=S)Nc2ccc(Cl)cc2)c1` [Compound 9, 1-(4-chlorophenyl)-3-[3-(trifluoromethyl)phenyl]thiourea], the “IL-6 Concentration” value amounted to 5.2 ± 0.03 pg/mL with IL-6 level, SW620 cells and 5.5 ± 0.02 pg/mL in the series on IL-6 level, SW480 cells. The IC50 in the series on SW480 cells (Homo sapiens, SW480, 72 h) was 38.1 ± 4.38 µM; in series [1] it was at most 10 µM.

As usually defined, the IC50 is the concentration at which inhibition is half-maximal. As usually defined, the melting point is the temperature, or range, at which the solid turns liquid.
